In patent US20260344673A1, “A SOLID FORM FOR PREPARATION OF AN AQUEOUS DISPERSION, AQUEOUS DISPERSION, STABLE CONCENTRATE, COMBINED AQUEOUS DISPERSION, AND USES THEREOF” (priority 2022, published 2026):

Assays:
Phytophthora cactorum = assay: Kirby-Bauer disk diffusion test, Phytophthora cactorum; design: % mycelium growth relative to the control: concentration or dose not given beside the values; settings: for % mycelium growth relative to the control / mycelium growth: V8 medium; for mycelium growth: control 5.4 cm; for EFFICACY W (Abbot): control W=0, no growth W=100
Description: (§1) The performance of the embodiments of the present inventions and their mixtures enriched with millbase (MFA) was analysed against the appropriate reference substance, i.e., a commercial product containing the analogue active substance with the same concentration. The prepared solutions were applied on the paper antibiograms. Then the soaked antibiograms were placed on the Petri Dishes (dish diameter 90 mm) with the growth medium for fungal pathogens V8. Composition of V8: agar, calcium carbonate and multi-vegetable juice. 3 fragments of mycelium of the tested pathogen (5×5 mm) were transplanted onto the prepared medium. As a result, the zones where the fungal growth was inhibited have been measured and compared respectively with the control sample and the analogue active substance sample.
(§2) Assessment was carried out by determining the infested area of the Petri dish in %. These percentages have been converted into efficacy (W) according to Abbot's formula as follows: W=(1−α/β)×100 • where: • α—corresponds to the mycelium/bacterial growth of each tested sample [%], • β—corresponds to the mycelium/bacterial growth in control sample [%].
(§3) In order to estimate if the combined action effect with the commercial fungicide, the W parameter of the mixture was compared with W parameter for particular commercial fungicide solo. Where W=0 the efficacy of the control sample (whole Petri dish covered with mycelium), and W=100 is when no mycelium growth observed.

Verticillium longisporum = assay: Kirby-Bauer disk diffusion test, Verticillium longisporum; settings: for % mycelium growth relative to the control / mycelium growth: V8 medium; for mycelium growth: control 3.9 cm; for EFFICACY W (Abbot): control W=0, no growth W=100
Description: as §1, §2, §3

Monilinia fructigena = assay: Kirby-Bauer disk diffusion test, Monilinia fructigena; settings: for % mycelium growth relative to the control / mycelium growth: V8 medium; for mycelium growth: control 5.4 cm; for EFFICACY W (Abbot): control W=0, no growth W=100
Description: as §1, §2, §3

Sclerotinia sclerotiorum [1] = assay: Kirby-Bauer disk diffusion test, Sclerotinia sclerotiorum; settings: for % mycelium growth relative to the control / mycelium growth: V8 medium; for mycelium growth: control 8.6 cm; for EFFICACY W (Abbot): control W=0, no growth W=100
Description: as §1, §2, §3

Fusarium oxysporum = assay: Kirby-Bauer disk diffusion test, Fusarium oxysporum; settings: Fusarium oxysporum; for % mycelium growth relative to the control / mycelium growth: V8 medium; for mycelium growth: control 8.6 cm; for EFFICACY W (Abbot): control W=0, no growth W=100
Description: (§4) The microbiological tests were carried out by applying Kirby-Bauer Disk Diffusion Susceptibility Test Protocol for antimicrobial activity. It is based on the formation of a concentration gradient in the growth medium during the diffusion of the active substance from the antibiogram disc (Kirby-Bauer method).
as §1, §2, §3

Septoria tritici = assay: Kirby-Bauer disk diffusion test, Septoria tritici; settings: for % mycelium growth relative to the control / mycelium growth: V8 medium; for mycelium growth: control 1.9 cm; for EFFICACY W (Abbot): control W=0, no growth W=100
Description: as §1, §2, §3

Venturia inaegualis = assay: Kirby-Bauer disk diffusion test, Venturia inaequalis; settings: Venturia inaegualis; for % mycelium growth relative to the control / mycelium growth: V8 medium; for mycelium growth: control 2.9 cm; for EFFICACY W (Abbot): control W=0, no growth W=100
Description: as §4, §1, §2, §3

[2] = system: Alternaria infectoria/alternata; assay: Kirby-Bauer disk diffusion test, Alternaria infectoria/alternata; settings: for % mycelium growth relative to the control / mycelium growth: V8 medium; for mycelium growth: control 8.6 cm; for EFFICACY W (Abbot): control W=0, no growth W=100
Description: as §1, §2, §3

Fusarium equiseti = assay: Kirby-Bauer disk diffusion test, Fusarium equiseti; settings: for % mycelium growth relative to the control / mycelium growth: V8 medium; for mycelium growth: control 8.6 cm; for EFFICACY W (Abbot): control W=0, no growth W=100
Description: as §1, §2, §3

Septoria nodorum (1291) = assay: Kirby-Bauer disk diffusion test, Septoria nodorum (1291); settings: for % mycelium growth relative to the control / mycelium growth: V8 medium; for mycelium growth: control 5.4 cm; for EFFICACY W (Abbot): control W=0, no growth W=100
Description: as §1, §2, §3

Rhizoctonia solani = assay: Kirby-Bauer disk diffusion test, Rhizoctonia solani; settings: for % mycelium growth relative to the control / mycelium growth: V8 medium; for mycelium growth: control 8.6 cm; for EFFICACY W (Abbot): control W=0, no growth W=100
Description: as §1, §2, §3

Phytophthora megasperma = assay: Kirby-Bauer disk diffusion test, Phytophthora megasperma; settings: Phytophthora megasperma; for % mycelium growth relative to the control / mycelium growth: V8 medium; for mycelium growth: control 5.4 cm (8.6 cm in Table 25); for EFFICACY W (Abbot): control W=0, no growth W=100
Description: as §4, §1, §2, §3

Fusarium graminearum = settings: for % mycelium growth relative to the control / mycelium growth: V8 medium; for mycelium growth: control 8.6 cm; for EFFICACY W (Abbot): control W=0, no growth W=100
Trichoderma harzianum = assay: Kirby-Bauer disk diffusion test, Trichoderma harzianum
Description: as §1, §2, §3

Peronospora manshurica = assay: Field trial soya, efficacy against Peronospora manshurica; format: in vivo; settings: field conditions, tank-mix, control (no treatment) 5.66
Description: (§5) The rates of application (use) of the composition of the present invention (MFA) vary according to type of use, type of crop, the specific active ingredient in the combination, but is such that the active ingredient in the combination is an effective amount to provide the desired action (such as disease control). The application rate of the composition for a given set of conditions can readily be determined by trials.
(§6) Field trials were conducted in Poland according to approved EPPO guidelines: PP 1/135(4), PP 1/152(4), PP 1/181(4) (general), PP 1/1(4) (sugar beet), PP 1/28 (3), PP 1/26(4) (winter wheat), PP 1/78(4) (oilseed), PP1/263 (1), PP1/16 (3) (strawberry), PP 1/2 (5), PP 1/263 (1) (potato). The spray volumes were in line with farmers' practice, varying between 200-300 l/ha. The applications were processed as per the EPPO guideline specific for each crop.

Colletotrichum spp. = assay: Field trial soya, efficacy against Colletotrichum spp.; format: in vivo; settings: field conditions, tank-mix, control (no treatment) 4.21
winter wheat = assay: Field trial winter wheat, plant biomass and yield parameters; format: in vivo; settings: field conditions
Description: as §6

oilseed rape = assay: Field trial oilseed rape, plant biomass and yield quality/quantity parameters; format: in vivo; settings: field conditions
Description: as §6

Sclerotinia sclerotiorum [3] = assay: Field trial oilseed rape, efficacy against Sclerotinia sclerotiorum; format: in vivo; settings: field conditions, tank-mix, control (no treatment) 6.28
Description: as §5, §6

Zymoseptoria tritici = assay: Field trial winter wheat, efficacy against Zymoseptoria tritici; format: in vivo; settings: field conditions, tank-mix, control (no treatment) 4.68
Description: as §5, §6

Phoma lingam = assay: Field trial oilseed rape, efficacy against Phoma lingam; format: in vivo; settings: field conditions, tank-mix, control (no treatment) 4.18
Description: as §5, §6

soya = assay: Field trial soya, plant biomass and yield parameters; format: in vivo; settings: field conditions
Description: as §6

[4] = system: Colletotrichum gloeosporioides; assay: Kirby-Bauer disk diffusion test, Colletotrichum gloeosporioides; settings: Colletotrichum gloeosporioides
Description: as §4, §1, §2, §3

Botrytis cinerea = assay: Kirby-Bauer disk diffusion test, Botrytis cinerea
Description: as §1, §2, §3

O=C(NCCc1ncc(C(F)(F)F)cc1Cl)c1ccccc1C(F)(F)F [Fluopyram (500)]
% mycelium growth relative to the control (Phytophthora cactorum): 72%
mycelium growth (Phytophthora cactorum): 3.9 cm
EFFICACY W (Abbot) (Phytophthora cactorum): 28
% mycelium growth relative to the control (Verticillium longisporum): 95%
mycelium growth (Verticillium longisporum): 3.7 cm
EFFICACY W (Abbot) (Verticillium longisporum): 5
% mycelium growth relative to the control (Monilinia fructigena): 30%
mycelium growth (Monilinia fructigena): 1.6 cm
EFFICACY W (Abbot) (Monilinia fructigena): 70
% mycelium growth relative to the control (Sclerotinia sclerotiorum [1]): 100%
mycelium growth (Sclerotinia sclerotiorum [1]): 8.6 cm
EFFICACY W (Abbot) (Sclerotinia sclerotiorum [1]): 0
% mycelium growth relative to the control (Fusarium oxysporum): 100%
mycelium growth (Fusarium oxysporum): 8.6 cm
EFFICACY W (Abbot) (Fusarium oxysporum): 0
% mycelium growth relative to the control (Septoria tritici): 0%
mycelium growth (Septoria tritici): 0 cm
EFFICACY W (Abbot) (Septoria tritici): 100
% mycelium growth relative to the control (Venturia inaegualis): 0%
mycelium growth (Venturia inaegualis): 0 cm
EFFICACY W (Abbot) (Venturia inaegualis): 100
% mycelium growth relative to the control [2]: 55%
mycelium growth [2]: 4.7 cm
EFFICACY W (Abbot) [2]: 45
% mycelium growth relative to the control (Fusarium equiseti): 79%
mycelium growth (Fusarium equiseti): 6.8 cm
EFFICACY W (Abbot) (Fusarium equiseti): 21
% mycelium growth relative to the control (Septoria nodorum (1291)): 61%
mycelium growth (Septoria nodorum (1291)): 3.3 cm
EFFICACY W (Abbot) (Septoria nodorum (1291)): 39
% mycelium growth relative to the control (Rhizoctonia solani): 100%
mycelium growth (Rhizoctonia solani): 8.6 cm
EFFICACY W (Abbot) (Rhizoctonia solani): 0
% mycelium growth relative to the control (Phytophthora megasperma): 65%
mycelium growth (Phytophthora megasperma): 3.5 cm
EFFICACY W (Abbot) (Phytophthora megasperma): 35
% mycelium growth relative to the control (Fusarium graminearum): 66%
mycelium growth (Fusarium graminearum): 5.7 cm
EFFICACY W (Abbot) (Fusarium graminearum): 34

COc1cc(C)c(C(=O)c2c(OC)ccc(Br)c2C)c(OC)c1OC [Metrafenone (150)]
% mycelium growth relative to the control (Trichoderma harzianum; V8 medium): 80%
mycelium growth (Trichoderma harzianum; V8 medium, control 8.6 cm): 6.9 cm
EFFICACY W (Abbot) (Trichoderma harzianum; control W=0, no growth W=100): 20

CC1(C)CCC(Cc2ccc(Cl)cc2)C1(O)Cn1cncn1 (centres unmarked) [Metconazole (90)]
Efficacy Peronospora manshurica (Peronospora manshurica): 3.13 scale 0-10
Efficacy Colletotrichum spp. (Colletotrichum spp.): 2.31 scale 0-10
Bulk density (winter wheat; control 0.67): 0.67 kg/L
The Thousand Grain Weight (TGW) (winter wheat; control 41.90): 46.20 g
Yield (winter wheat; control 76.50): 78.95 dt/ha
Biomass (winter wheat; control 157.50): 172.50 dt/ha
The Thousand Grain Weight (TGW) (oilseed rape; Tables 31-33, control 5.64): 6.13 g
Bulk density (oilseed rape; control 0.65): 0.67 kg/L
Yield (oilseed rape; control 25.49): 33.63 dt/ha
Biomass (oilseed rape; control 90.00): 152.50 dt/ha
Efficacy Sclerotinia sclerotiorum (Sclerotinia sclerotiorum [3]): 4.11 scale 0-10
Efficacy Zymoseptoria tritici (Zymoseptoria tritici): 3.11 scale 0-10
Efficacy Phoma lingam (Phoma lingam): 2.99 scale 0-10
Bulk density (soya; control 0.728): 0.724 kg/L
Yield (soya; control 37.41): 32.86 dt/ha
Biomass (soya; control 190.0): 146.7 dt/ha
The Thousand Grain Weight (TGW) (soya; control 205.3): 207.0 g

N#Cc1c[nH]cc1-c1cccc2c1OC(F)(F)O2 [Fludioxonil (250)]
% mycelium growth relative to the control (Phytophthora cactorum): 100%
mycelium growth (Phytophthora cactorum): 5.4 cm
EFFICACY W (Abbot) (Phytophthora cactorum): 0
% mycelium growth relative to the control (Verticillium longisporum): 87%
mycelium growth (Verticillium longisporum): 3.4 cm
EFFICACY W (Abbot) (Verticillium longisporum): 13
% mycelium growth relative to the control (Monilinia fructigena): 61%
mycelium growth (Monilinia fructigena): 3.3 cm
EFFICACY W (Abbot) (Monilinia fructigena): 39
% mycelium growth relative to the control (Sclerotinia sclerotiorum [1]): 0%
mycelium growth (Sclerotinia sclerotiorum [1]): 0 cm
EFFICACY W (Abbot) (Sclerotinia sclerotiorum [1]): 100
% mycelium growth relative to the control (Fusarium oxysporum): 86%
mycelium growth (Fusarium oxysporum): 7.4 cm
EFFICACY W (Abbot) (Fusarium oxysporum): 14
% mycelium growth relative to the control (Septoria tritici): 42%
mycelium growth (Septoria tritici): 0.8 cm
EFFICACY W (Abbot) (Septoria tritici): 58
% mycelium growth relative to the control (Venturia inaegualis): 38%
mycelium growth (Venturia inaegualis): 1.1 cm
EFFICACY W (Abbot) (Venturia inaegualis): 62
% mycelium growth relative to the control [2]: 0%
mycelium growth [2]: 0 cm
EFFICACY W (Abbot) [2]: 100
% mycelium growth relative to the control ([4]; V8 medium): 81%
mycelium growth ([4]; V8 medium, control 5.4 cm): 4.4 cm
EFFICACY W (Abbot) ([4]; control W=0, no growth W=100): 19
% mycelium growth relative to the control (Fusarium equiseti): 81%
mycelium growth (Fusarium equiseti): 7 cm
EFFICACY W (Abbot) (Fusarium equiseti): 19
% mycelium growth relative to the control (Septoria nodorum (1291)): 72%
mycelium growth (Septoria nodorum (1291)): 3.9 cm
EFFICACY W (Abbot) (Septoria nodorum (1291)): 28
% mycelium growth relative to the control (Botrytis cinerea; V8 medium): 0%
mycelium growth (Botrytis cinerea; V8 medium, control 8.6 cm): 0 cm
EFFICACY W (Abbot) (Botrytis cinerea; control W=0, no growth W=100): 100
% mycelium growth relative to the control (Rhizoctonia solani): 55%
mycelium growth (Rhizoctonia solani): 4.7 cm
EFFICACY W (Abbot) (Rhizoctonia solani): 45
% mycelium growth relative to the control (Phytophthora megasperma): 100%
mycelium growth (Phytophthora megasperma): 5.4 cm
EFFICACY W (Abbot) (Phytophthora megasperma): 0
% mycelium growth relative to the control (Fusarium graminearum): 73%
mycelium growth (Fusarium graminearum): 6.3 cm
EFFICACY W (Abbot) (Fusarium graminearum): 27
